# Assays:
# [1] = SEM images of caking / agglomeration; type: physicochemical
# Protocol: SEM images were collected using a Phenom XL Desktop SEM equipped with a CeB6 electron source (see FIG. 6). Phenom User Interface version 1.4 was used to acquire and save the images. Detailed image parameters are recorded in the footer of each image. Powder sample preparation for proper SEM results is known to those skilled in the art, and mainly relies on a proper monolayer of particles. These can be prepared with: the flick method, wherein a cotton swab is used to disperse particles onto a sample support by the “flick of a finger”; drop casting, where liquid solvents transfer particles onto a sample stub; or the dish method, where particles are spread over the area of a petri dish or similar flat surface using a spatula. A Nebula Particle Dispenser may also be used to prepare a uniform layer of powder. Although it is desirable to avoid agglomeration, the example as described herein sought to determine when agglomeration occurs at particular humidity levels. The samples tested herein were prepared with the flick method.
# [2] = Angle of repose, USP <1174>; type: physicochemical
# Protocol: Angle of repose analyses were performed on artesunate powders based upon USP <1174> and under controlled relative humidity conditions. Polytetrafluoroethylene (PTFE) funnels with 8, 10 and 12 mm openings (i.e., Funnel 1, Funnel 2 and Funnel 3, respectively) were used in conjunction with a stainless steel receiving cylinder (Ø=30 mm). Powder samples were placed in the funnel while the funnel opening was closed with a glass slide. Once all the sample powder was loaded in the funnel, the glass slide was removed to allow powder to land on the cylinder below. The top and side of the funnel were tapped to enable the sample powder to drop down. The funnel height was maintained approximately 2-4 cm from the top of the powder pile to minimize the impact of falling powder on the tip of the cone. After the powder cone was built, height of the material forming the cone (h) and the radius (r) of the base were measured by a metal ruler. The angle of repose (θ) was calculated as follows: tan (θ)=h/r. Results were only considered valid when a symmetrical cone of powder was formed. Triplicate tests were attempted for each size of the funnels with the same amount of material being used.
# [3] = Bulk density, graduated cylinder; type: physicochemical
# [4] = cited from earlier work
# [5] = Tapped density, Caleva tapped density tester; type: physicochemical; settings: after tapping
# Protocol: The artesunate powders were then passed through a No. 18, 1.00 mm sieve and then added to a 10 mL Cole Parmer graduated cylinder. The graduated cylinder containing the artesunate powders was placed on a Caleva tapped density tester. The samples in the graduated cylinder were then subjected to the following sequence: 10 taps, 500 additional taps, 1250 additional taps, and 1250 additional taps. A volume was taken at the end of each set of taps, and when the volume was consistent for two sets in a row, the measurement was terminated. This final volume was then used to calculate the tapped density. Two replicate measurements were taken, and an average value was calculated.
# [6] = cited from earlier work; remark: listed apart in the source
# [7] = Tapped density, Caleva tapped density tester; type: physicochemical; settings: 35% RH exposure ~24 h; after tapping
# [8] = Dynamic Vapor Sorption (DVS) moisture absorbance; type: physicochemical; settings: 25 °C
# Protocol: The instruments were calibrated with standard weights and a sodium bromide standard for humidity. One sample was equilibrated 50% RH for at least 5 days prior to analysis, while the other sample was equilibrated to 20% RH for at least 5 days prior to analysis. Approximately 10 to 20 mg of the powder samples were loaded into metal-coated quartz pans for analysis. The samples were analyzed at 25° C. in 10% RH steps from 5 to 95% RH (adsorption cycle) and from 95 to 5% RH (desorption cycle). The movement from one step to the next occurred either after satisfying the equilibrium criterion of 0.01% weight change in 30 minutes or, if the equilibrium criterion was not met, after 90 minutes. The percent weight change values were calculated using Microsoft Excel®2016. The results of this example are provided in Tables 6 and 7 and depicted in FIG. 1 (Sample Equilibrated to 20% RH) and FIG. 2 (Sample Equilibrated to 50% RH).
smiles,measurement,setting,value
"C[C@H]1[C@H](OC(=O)CCC(=O)O)O[C@@H]2O[C@@]3(C)CC[C@H]4[C@H](C)CC[C@@H]1[C@@]24OO3 [artesunate powder, 4-oxo-4-[[(1R,4S,5R,8S,9R,10S,12R,13R)-1,5,9-trimethyl-11,14,15,16-tetraoxatetracyclo[10.3.1.0^4,13.0^8,13]hexadecan-10-yl]oxy]butanoic acid]",caking / agglomeration in SEM images,[1]; 20% RH (FIG. 6),"strong caking, or agglomeration"
same,caking in SEM images,[1]; 35% RH (FIG. 7),less caking
same,agglomeration / caking in SEM images,[1]; 50% RH (FIG. 8),"significant agglomeration, or caking"
same,angle of repose,"[2]; 35% RH, Average of Funnels 1-3",39 degrees
same,angle of repose,"[2]; 35% RH, Funnel 1 (8 mm opening)",35 degrees
same,angle of repose,"[2]; 35% RH, Funnel 2 (10 mm opening)",38 degrees
same,angle of repose,"[2]; 35% RH, Funnel 3 (12 mm opening)",45 degrees
same,flow properties based on USP 1174,[2]; 35% relative humidity,acceptable
same,angle of repose,"[2]; 50% RH, Average of Funnels 1-3",43 degrees
same,angle of repose,"[2]; 50% RH, Funnel 1 (8 mm opening)",42 degrees
same,angle of repose,"[2]; 50% RH, Funnel 2 (10 mm opening)",45 degrees
same,angle of repose,"[2]; 50% RH, Funnel 3 (12 mm opening)",42 degrees
same,flow property based on USP 1174,[2]; 50% relative humidity,passable but may hang up
same,Average Bulk Density,[3]; 20% RH exposure ~24 h,0.203 g/mL
same,Bulk Density 1,[3]; 20% RH exposure ~24 h,0.193 g/mL
same,Bulk Density 2,[3]; 20% RH exposure ~24 h,0.231 g/mL
same,Average Bulk Density,[3]; 50% RH exposure ~24 h,0.203 g/mL
same,Bulk Density 1,[3]; 50% RH exposure ~24 h,0.200 g/mL
same,Bulk Density 2,[3]; 50% RH exposure ~24 h,0.208 g/mL
same,stability under basic and acidic conditions,[4]; basic and acidic conditions,unstable
same,degradation by moisture and heat,"[4]; moisture and heat (Agnihotri J. et al, 2013)",susceptible to degradation
same,Average Bulk Density (Tapped Densities of Powder Samples),[5]; 20% RH exposure ~24 h,0.303 g/mL
same,Bulk Density 1 (Tapped Densities of Powder Samples),[5]; 20% RH exposure ~24 h,0.307 g/mL
same,Bulk Density 2 (Tapped Densities of Powder Samples),[5]; 20% RH exposure ~24 h,0.318 g/mL
same,Bulk Density 3 (Tapped Densities of Powder Samples),[5]; 20% RH exposure ~24 h,0.283 g/mL
same,Average Bulk Density (Tapped Densities of Powder Samples),[5]; 35% RH exposure ~24 h,0.318 g/mL
same,Bulk Density 1 (Tapped Densities of Powder Samples),[5]; 35% RH exposure ~24 h,0.317 g/mL
same,Bulk Density 2 (Tapped Densities of Powder Samples),[5]; 35% RH exposure ~24 h,0.300 g/mL
same,Average Bulk Density (Tapped Densities of Powder Samples),[5]; 50% RH exposure ~24 h,0.317 g/mL
same,Bulk Density 1 (Tapped Densities of Powder Samples),[5]; 50% RH exposure ~24 h,0.320 g/mL
same,Bulk Density 2 (Tapped Densities of Powder Samples),[5]; 50% RH exposure ~24 h,0.312 g/mL
same,Bulk Density 3 (Tapped Densities of Powder Samples),[5]; 50% RH exposure ~24 h,0.319 g/mL
same,solubility in organic solvents,"[6]; organic solvents, such as acetone and methanol",soluble
same,solubility in water,[6]; water,slightly soluble
same,Bulk Density 3 (Tapped Densities of Powder Samples),[7],0.337 g/mL
same,% change (DVS),"[8]; sample equilibrated to 20% RH, RH step 95, total 360 min",100.08%
same,% change (DVS),"[8]; sample equilibrated to 20% RH, adsorption, RH step 5, total 0 min",100.00%
same,% change (DVS),"[8]; sample equilibrated to 20% RH, adsorption, RH step 5, total 60 min",100.00%
same,% change (DVS),"[8]; sample equilibrated to 20% RH, adsorption, RH step 15, total 90 min",100.02%
same,% change (DVS),"[8]; sample equilibrated to 20% RH, adsorption, RH step 25, total 120 min",100.02%
same,% change (DVS),"[8]; sample equilibrated to 20% RH, adsorption, RH step 35, total 150 min",100.03%
same,% change (DVS),"[8]; sample equilibrated to 20% RH, adsorption, RH step 45, total 180 min",100.03%
same,% change (DVS),"[8]; sample equilibrated to 20% RH, adsorption, RH step 55, total 210 min",100.03%
same,% change (DVS),"[8]; sample equilibrated to 20% RH, adsorption, RH step 65, total 240 min",100.04%
same,% change (DVS),"[8]; sample equilibrated to 20% RH, adsorption, RH step 75, total 270 min",100.05%
same,% change (DVS),"[8]; sample equilibrated to 20% RH, adsorption, RH step 85, total 300 min",100.06%
same,% change (DVS),"[8]; sample equilibrated to 20% RH, desorption, RH step 5, total 630 min",100.04%
same,% change (DVS),"[8]; sample equilibrated to 20% RH, desorption, RH step 15, total 600 min",100.04%
same,% change (DVS),"[8]; sample equilibrated to 20% RH, desorption, RH step 25, total 570 min",100.04%
same,% change (DVS),"[8]; sample equilibrated to 20% RH, desorption, RH step 35, total 540 min",100.04%
same,% change (DVS),"[8]; sample equilibrated to 20% RH, desorption, RH step 45, total 510 min",100.05%
same,% change (DVS),"[8]; sample equilibrated to 20% RH, desorption, RH step 55, total 480 min",100.06%
same,% change (DVS),"[8]; sample equilibrated to 20% RH, desorption, RH step 65, total 450 min",100.06%
same,% change (DVS),"[8]; sample equilibrated to 20% RH, desorption, RH step 75, total 420 min",100.06%
same,% change (DVS),"[8]; sample equilibrated to 20% RH, desorption, RH step 85, total 390 min",100.07%
same,% change (DVS),"[8]; sample equilibrated to 50% RH, RH step 95, total 360 min",100.08%
same,% change (DVS),"[8]; sample equilibrated to 50% RH, adsorption, RH step 5, total 0 min",100.00%
same,% change (DVS),"[8]; sample equilibrated to 50% RH, adsorption, RH step 5, total 30 min",100.01%
same,% change (DVS),"[8]; sample equilibrated to 50% RH, adsorption, RH step 15, total 60 min",100.01%
same,% change (DVS),"[8]; sample equilibrated to 50% RH, adsorption, RH step 25, total 90 min",100.01%
same,% change (DVS),"[8]; sample equilibrated to 50% RH, adsorption, RH step 35, total 120 min",100.01%
same,% change (DVS),"[8]; sample equilibrated to 50% RH, adsorption, RH step 45, total 150 min",100.02%
same,% change (DVS),"[8]; sample equilibrated to 50% RH, adsorption, RH step 55, total 180 min",100.02%
same,% change (DVS),"[8]; sample equilibrated to 50% RH, adsorption, RH step 65, total 240 min",100.03%
same,% change (DVS),"[8]; sample equilibrated to 50% RH, adsorption, RH step 75, total 270 min",100.04%
same,% change (DVS),"[8]; sample equilibrated to 50% RH, adsorption, RH step 85, total 300 min",100.05%
same,% change (DVS),"[8]; sample equilibrated to 50% RH, desorption, RH step 5, total 660 min",100.02%
same,% change (DVS),"[8]; sample equilibrated to 50% RH, desorption, RH step 15, total 630 min",100.02%
same,% change (DVS),"[8]; sample equilibrated to 50% RH, desorption, RH step 25, total 600 min",100.02%
same,% change (DVS),"[8]; sample equilibrated to 50% RH, desorption, RH step 35, total 570 min",100.02%
same,% change (DVS),"[8]; sample equilibrated to 50% RH, desorption, RH step 45, total 540 min",100.03%
same,% change (DVS),"[8]; sample equilibrated to 50% RH, desorption, RH step 55, total 510 min",100.04%
same,% change (DVS),"[8]; sample equilibrated to 50% RH, desorption, RH step 65, total 480 min",100.05%
same,% change (DVS),"[8]; sample equilibrated to 50% RH, desorption, RH step 75, total 450 min",100.05%
same,% change (DVS),"[8]; sample equilibrated to 50% RH, desorption, RH step 85, total 420 min",100.06%

# Reference: patent US20250339400A1, “ARTESUNATE POWDERS, PHARMACEUTICAL COMPOSITIONS AND METHODS OF MANUFACTURE” (AMIVAS, INC., priority 2024, published 2025)
